Patent publication US4360516A, “Modified D-retro cyclic hexapeptide somatostatin analogs” (Merck & Co., Inc., priority 1981, dated 1982)
Square brackets hold non-standard residues; d marks the D form. Peptide text beside a SMILES is read from it. dNMeF = CN[C@H](Cc1ccccc1)C(=O)O; dAbu = CC[C@@H](N)C(=O)O

These compounds were tested on growth hormone release, rat pituitary cells (assay: in vitro test for the inhibition of growth hormone release in cultured rat pituitary cells). Conditions: multiples or fractions of the effect of somatostatin (arbitrary value 1); rat pituitary cells after 4 days in culture, 4 hours incubation, graded doses; growth hormone by radioimmunoassay.
Assay type: cell-based
Description: The instant cyclic hexapeptide analogs ofsomatostatin are tested and compared with the effects of somatostatin in an in vitro test for the inhibition of growth hormone. The test is described as follows:
"Rat pituitaries" were isolated according to the procedures of Vale and Grant `In vitro Pituitary Hormone Secretion Assay for Hypophysiopic Substances` in Methods in Enzymology. Vol.XXXVII, eds. O'Malley, B. W. and Hardman, J. G. (Academic Press, Inc., New York) pp.5-93 (1975).
"After 4 days in culture, the cells were washed and incubated for 4 hours in Dulbecco-modified Eagle's medium in the presence or absence of graded doses of each analog of somatostatin. The medium was then collected for subsequent growth hormone determination by a double antibody radioimmunoassay for rat growth hormone."
The test results for some of the compounds of this invention are recorded below with the results for somatostatin listed first and given the arbitrary value of 1. The results for the instant compounds are given as multiples or fractions of the effect of somatostatin. The first of the instant compounds listed is the compound prepared in Examples 1-5. The compound is written slightly different, however, to conform to the order of the amino acids found in somatostatin.

In order of falling “Growth Hormone Release Inhibition In Vitro” value:
1. CC[C@H]1NC(=O)[C@@H](Cc2ccc(O)cc2)NC(=O)[C@@H](Cc2c[nH]c3ccccc23)NC(=O)[C@H](CCCCN)NC(=O)[C@@H](C(C)C)NC(=O)[C@@H](Cc2ccccc2)N(C)C1=O [Cyclo-(D-Abu--N--Me--D-Phe--D-Val--L-Lys--D-Trp--D-Tyr)] (cyclo(K[dW][dY][dAbu][dNMeF][dV]))  2.4
2. C[C@H](O)[C@H]1NC(=O)[C@@H](Cc2ccccc2)N(C)C(=O)[C@@H](C)NC(=O)[C@@H](Cc2ccccc2)NC(=O)[C@@H](Cc2c[nH]c3ccccc23)NC(=O)[C@H](CCCCN)NC1=O [Cyclo-(D-Ala--N--Me--D-Phe--D-Thr--L-Lys--D-Trp--D-Phe)] (cyclo(K[dW][dF][dA][dNMeF][dT]))  0.88
3. CC(C)[C@H]1NC(=O)[C@@H](Cc2ccccc2)N(C)C(=O)[C@@H](C)NC(=O)[C@@H](Cc2ccccc2)NC(=O)[C@@H](Cc2c[nH]c3ccccc23)NC(=O)[C@H](CCCCN)NC1=O [Cyclo-(D-Ala--N--Me--D-Phe--D-Val--L-Lys--D-Trp--D-Phe)] (cyclo(K[dW][dF][dA][dNMeF][dV]))  0.3
4. C[C@H](O)[C@H]1NC(=O)[C@@H](Cc2ccccc2)N(C)C(=O)[C@@H](C)NC(=O)[C@@H](Cc2ccccc2)NC(=O)[C@H](Cc2c[nH]c3ccccc23)NC(=O)[C@@H](CCCCN)NC1=O [Cyclo-(D-Ala--N--Me--D-Phe--D-Thr--D-Lys--L-Trp--D-Phe)] (cyclo(W[dF][dA][dNMeF][dT][dK]))  0.27
